Results from patent US8465963B2, “Grass endophyte enhanced attributes” (priority 2005, dated 2013).

How the values were obtained:
[1] = test system: Neotyphodium endophytes in perennial ryegrass; details: fungicide soak; cited from earlier work
[2] = test system: Neotyphodium endophytes in tall fescue; details: fungicide soak; cited from earlier work
[3] = test system: ryegrass (Lolium perenne) seed infected with Neotyphodium endophyte; details: prochloraze 1 g/kg; triticonazole 5 and 10 g/kg; cited from earlier work
[4] = test system: endophytes (AR502, AR542 and AR584); experiment: Trial 1 field trial: effect of fungicides on viable endophytes, means over endophytes; details: means of all other treatments
Source text: The pH of the solution is 7.5.

Structure (SMILES) | effect of fungicide on endophyte [1] | effect of fungicide on endophyte [2] | seed germination [3] | level of viable endophyte [4]
CCCCNC(=O)n1c(NC(=O)OC)nc2ccccc21 [benomyl] | effective in killing endophyte | effective in killing endophyte | – | –
O=CNC(N1CCN(C(NC=O)C(Cl)(Cl)Cl)CC1)C(Cl)(Cl)Cl (stereo not drawn) [Triforine] | effective in some perennial ryegrass plants | effective in tall fescue | – | –
CCCN(CCOc1c(Cl)cc(Cl)cc1Cl)C(=O)n1ccnc1 [prochloraze] | – | – | effected | –
CC1(C)CCC(=Cc2ccc(Cl)cc2)C1(O)Cn1cncn1 (stereo not drawn) [triticonazole] | – | – | effected | –
COC(=O)NC(=S)Nc1ccccc1NC(=S)NC(=O)OC [Thiophanate-methyl] | little effect on endophyte | no effect on endophyte | – | –
Fc1ccc([C@]2(Cn3cncn3)O[C@H]2c2ccccc2Cl)cc1 [epiconazole] | – | – | – | most significantly reducing viable endophyte levels
